According to patent publication US20090286804A1, “METABOLITES OF 1-[6-(1-ETHYL-1-HYDROXY-PROPYL)-PYRIDIN-3-YL]-3-[2-(4-METHYL-PIPERAZIN-1-YL)-BENZYL]-PYRROLIDIN-2-ONE AS SERATONIN RECEPTOR ANTAGONISTS” (Pfizer Inc, priority 2005, published 2009):

Target: serotonin-1 receptors (5-HT1A and/or 5-HT1B)
Test: radioligand binding assay for serotonin-1 receptor affinity (IC50)
Conditions: receptor subtype not given
From the text: The affinities of the compounds of this invention for the various serotonin-1 receptors can be determined using standard radioligand binding assays as described in the literature. The 5-HT1A affinity can be measured using the procedure of Hoyer et al. (Brain Res., 376, 85 (1986)). The 5-HT1B affinity can be measured using the procedure of Heuring and Peroutka (J. Neurosci., 7, 894 (1987)).
The in vitro activity of the compounds of the present invention at the 5-HT1B binding site can be determined according to the following procedure. Bovine caudate tissue is homogenized and suspended in 20 volumes of a buffer containing 50 mM TRIS•hydrochloride (tris[hydroxymethyl]aminomethane hydrochloride) at a pH of 7.7. The homogenate is then centrifuged at 45,000 G for 10 minutes. The supernatant is then discarded and the resulting pellet resuspended in approximately 20 volumes of 50 mM TRIS•hydrochloride buffer at pH 7.7. […]
The inhibitor, control or vehicle is then incubated according to the following procedure. […] The percent inhibition can be calculated for each dose of the compound. An IC50 value can then be calculated from the percent inhibition values.
The activity of the compounds of the present invention for 5-HT1A binding ability can be determined according to the following procedure. […] The tissue is stored at −70° C. until ready for an experiment. […]

For `CCC(O)(c1ccc(N2CC[C@@H](Cc3ccccc3N3CCN(C)CC3)C2=O)cn1)C(C)O` (stereo in doubt) [Formula I, 1-[6-(1-ethyl-1,2-dihydroxy-propyl)-pyridin-3-yl]-3-[2-(4-methyl-piperazin-1-yl)-benzyl]-pyrrolidin-2-one], the IC50 was ≤ 100 nM.
